Measured values from patent US8686190B2, “Bis-aromatic anticancer agents” (The UAB Research Foundation, priority 2008, dated 2014).

Tests used:
PC-3 = assay: Cytotoxicity screening, PC-3 cells; type: cell-based; conditions: Homo sapiens; for inhibition at 10 µM: treatment at 10 μM, 24 h treatment then 96 h incubation, read-out: Inhibition: percent cell death normalized against controls; for IC50: read-out: IC50, drug dose to inhibit 50% cell proliferation
Description: (§1) Tumor cells were maintained as monolayers in 75-cm^2 tissue culture flasks using their respective cell culture medium containing 10% fetal bovine serum and 2 mM L-glutamine. The cells were incubated at 37° C. under a humidified 5% CO2: air atmosphere (standard conditions) for five days. The cells were harvested when in mid-log growth and their concentration was determined using a particle counter (Beckman Coulter, Inc, Fullerton, Calif.). An aliquot of the cell suspension was diluted in culture medium for delivery to a 24-well tissue culture plate at a range of 10,000 to 30,000 per 1 mL per well. After 24 h, quadruplicate wells were inoculated with either vehicle (untreated controls) or test compounds at various concentrations. After 24 h of incubation, the wells were aspirated, washed once with 1 mL PBS, and refilled with 1 mL treatment-free medium. Following a 96-h incubation under the initial treatment conditions, the viable cells were counted and the numbers were normalized to the percent of untreated controls. The extent of cytotoxicity in treated wells as compared to the controls and the dose that inhibits 50% cell proliferation (IC50) was calculated.

MIA PaCa-2 = assay: Cytotoxicity screening, MIA PaCa-2 cells; type: cell-based; conditions: Homo sapiens; for inhibition at 10 µM: treatment at 10 μM, 24 h treatment then 96 h incubation; for IC50: read-out: IC50, drug dose to inhibit 50% cell proliferation
Description: as §1

LS174-T = assay: Cytotoxicity screening, LS174-T cells; type: cell-based; conditions: Homo sapiens, LS174T; for inhibition at 10 µM: treatment at 10 μM, 24 h treatment then 96 h incubation; for IC50: read-out: IC50, drug dose to inhibit 50% cell proliferation
Description: as §1

Panc-1 = assay: Cytotoxicity screening, Panc-1 cells; type: cell-based; conditions: Homo sapiens; for inhibition at 10 µM: Panc-1, treatment at 10 μM, 24 h treatment then 96 h incubation, read-out: Inhibition: percent cell death normalized against controls
Description: as §1

[1] = system: LS174-T human colon carcinoma tumors; assay: Evaluation of antitumor activity, nude mouse model of LS174-T tumors; type: in vivo; conditions: female nude mice, sc LS174-T tumors, iv qdx5; untreated control 15 days; n=8, p=0.043
Description: Antitumor activity of compound II-e was evaluated using a nude mouse model of Ls174-T human colon cancer tumors. Female nude mice were implanted subcutaneously (sc) with LS174-T human colon carcinoma cells (10^7 cells/mouse). When tumors reached a cross diameter of 7 mm, the mice were randomized into 2×8 groups and were injected iv with either the vehicle (5% dextrose solution containing 20% 50:50, Cremophore EL: ethanol)) or a solution II-e in the same solvent system. The protocol used was qdx5 injections every 24 h. Tumor volumes were monitored by caliper measurement 3× weekly (see FIG. 1 wherein circles correspond to inactivated compound IIe; triangles correspond to vehicle; and squares correspond to compound II-e).

[2] = read-out: Inhibition: percent cell death normalized against controls
[3] = measured at 7.5 μM, read-out: Inhibition: percent cell death normalized against controls

| SMILES | inhibition at 10 µM (PC-3) [%] | inhibition at 10 µM (MIA PaCa-2; [2]) [%] | inhibition at 10 µM (LS174-T; [2]) [%] | inhibition at 10 µM (Panc-1) [%] | IC50 (PC-3) [µM] | inhibition at 7.5 µM (MIA PaCa-2; [3]) [%] | IC50 (MIA PaCa-2) [µM] | inhibition at 7.5 µM (LS174-T; [3]) [%] | IC50 (LS174-T) [µM] | IC50 (Panc-1; PANC-1, read-out: IC50, drug dose to inhibit 50% cell proliferation) [µM] | Tumor doubling time [1] [days] |
| --- | --- | --- | --- | --- | --- | --- | --- | --- | --- | --- | --- |
| OC(CSCC(O)c1ccccc1)c1ccccc1 (stereo not shown) [II-a] | 5 ± 9 | – | – | – | – | – | – | – | – | – | – |
| COc1cccc(C(O)CSCC(O)c2cccc(OC)c2OC)c1OC (stereo not shown) [II-b] | 8 ± 4 | 0 | 0 | 0 | – | – | – | – | – | – | – |
| OC(CSCC(O)c1ccc(OC(F)(F)F)cc1)c1ccc(OC(F)(F)F)cc1 (stereo not shown) [II-c] | 40 ± 7 | 34 ± 14 | 13 ± 7 | 43 ± 9 | – | – | – | – | – | – | – |
| OC(CSCC(O)c1ccc(C(F)(F)F)cc1)c1ccc(C(F)(F)F)cc1 (stereo not shown) [II-d] | 43 ± 4 | 11 ± 4 | 33 ± 6 | 27 ± 5 | – | – | – | – | – | – | – |
| CC(=O)C(CSCC(C(C)=O)c1cc(C(F)(F)F)cc(C(F)(F)F)c1)c1cc(C(F)(F)F)cc(C(F)(F)F)c1 (stereo not shown) [II-e bis-OAc, 4,4′-thiobis(3-(3,5-bis(trifluoromethyl)phenyl)butan-2-one)] | – | 29 ± 6 | – | – | – | – | – | – | – | – | – |
| OC(CSCC(O)c1cc(C(F)(F)F)cc(C(F)(F)F)c1)c1cc(C(F)(F)F)cc(C(F)(F)F)c1 (stereo not shown) [II-e] | 78 ± 4 | 94 ± 2 | 96 | 80 ± 4 | 4.4 | 94 ± 2 | 3.7 | 96 ± 1 | 3.6 | 6.3 | 30 |
| COc1cc(/C=C/C(=O)CC(=O)/C=C/c2ccc(O)c(OC)c2)ccc1O [curcumin, reference compound] | – | – | – | – | 12 | – | 9 | – | 6.5 | – | – |
